From patent US8084398B2, “Benzoylpyrazoles and herbicide” (Bayer Cropscience AG, priority 2006, dated 2011)

What was measured:
Amaranthus lividus = experiment: Herbicidal efficacy against field weeds, pre-emergence soil spray treatment (Test Example 1); type: in vivo; settings: 500 g ai/ha, 2 weeks after treatment, 100% = complete death, 0% = no efficacy
Method: (§1) Test for herbicidal efficacy against field weeds (Pre-emergence soil spray treatment) Preparation of formulation of the active compound
(§2) Carrier: DMF 5 parts by weight
(§3) Emulsifier: Benzyloxy polyglycol ether 1 part by weight
(§4) A suitable formulation of an active compound is obtained as an emulsifiable concentrate by mixing 1 part by weight of the active compound with the stated amounts of the carrier and emulsifier. A prescribed amount of the formulation is diluted with water.
(§5) In a green house, the seeds of field weeds (Amaranthus lividus and Setaria viridis) were inoculated by one species per pot on the surface layer in 16 cm^2 pots filled with field soil (sand loam) and covered with soil. Immediately after the inoculation, the prescribed and diluted solutions of the formulations of respective active compounds prepared according to the above preparation method, were sprayed to the soil. After 2 weeks from the treatment, the herbicidal efficacy of respective active compounds was examined. The evaluation of the herbicidal efficacy was carried out by rating complete death as 100% and as 0% in case of no herbicidal efficacy. In case of showing herbicidal efficacy of 80% or more, such active compounds are evaluated to be practical as herbicides. As typical examples, the study results with Compound Nos. 19 and 96 and those with Comparative compound C-1 are shown in Table 2 below.

Setaria viridis [1] = experiment: as above; type: in vivo; settings: 500 g ai/ha, 2 weeks after treatment, 100% = complete death, 0% = no efficacy
Method: as §1, §2, §3, §4, §5

Setaria viridis [2] = experiment: Herbicidal efficacy against field weeds, after-emergence stalk and leaf spray treatment (Test Example 2); type: in vivo; settings: 2- to 3-leaf stage, 500 g ai/ha, 2 weeks after treatment, 100% = complete death
Method: as §4, §5
Test for herbicidal efficacy against field weeds (After-emerge stalk and leave spray treatment) […]

Cc1nn(C)c(O)c1C(=O)c1ccc(Cl)c(OCCn2cnnn2)c1Cl
melting point: 63 to 68 °C

CS(=O)(=O)c1ccc(C(=O)C2C(=O)CCCC2=O)c(Cl)c1 [C-1]
herbicidal efficacy, Amaranthus lividus (Amaranthus lividus): 70% | herbicidal efficacy, Setaria viridis (Setaria viridis [1]): 30% | herbicidal efficacy, Setaria viridis (Setaria viridis [2]): 40%
